According to patent US6423692B2 (priority 1997, dated 2002):

Tests used:
9L-Neo cells [1] = assay: cells; format: cell-based; details: Rattus norvegicus, 120 h, read-out: Cytotoxicity, cell viability
Protocol: Surviving cells were then counted 3 days later. Data represent means+s.e.m. […] Data represent the means +s.e.m. (bars) of five separate experiments.
In order to determine whether the dCK/ara-C-mediated bystander effect is dependent on direct cell-to-cell contact, 9L-Neo cells were plated on the bottom of a microliter transwell either directly with 9L-dCK cells or separated from the 9L-dCK cells by a 3-μm porous membrane. Significant cytotoxicity (38%+2% of control) was also seen in the 9L-Neo cells that were directly mixed in the bottom compartment with the 9L-dCK cells, compared with minimal cytotoxicity (81% of control) when the 9L-Neo cells were separated from the 9L-dCK cells by the membrane (FIG. 3b). The difference in cytotoxicity between cell-to-cell and membrane separated cell killing was statistically significant; P<0.01.

intracerebral 9L glioma = format: in vivo, Fischer 344 rats
Protocol: 9L-Neo or 9L-dCK cells (2×10^4) were injected into right caudate nucleus of the brain. Four days later, viral vehicle or 2×10^8 PFU of recombinant adenoviruses were injected into the tumors stereotaxically using the same route of previous 9L inoculation (V).
Four days later, viral vehicle, or 2×10^8 PFU (plaque-forming units) of either the Ad.CMVβgal or Ad.CMVdCK vectors were stereotactically injected into the tumors.
(§4) Implantation of intracerebral tumors. 9L-Neo and 9L-dCK cells were stereotaxically implanted into the right caudate nucleus of Fischer 344 rats using a modification of the method of Kobayashi [Kobayashi, N. et al. J. Neurosurg. […] In brief, male Fischer 344 rats (150-175 g) were anesthetized and placed in a small animal stereotaxic frame (Kopf Instruments). Tumor cells (2×10^4/10 μl) were injected with a 701 Hamilton syringe over 30 s to a depth of 4.5 mm, 1.3 mm posterior and 4 mm to the right of the bregma. […] Statistical significance of survival between different groups was assessed using log rank analysis of Kaplan Meier survival curves.

9L-Neo tumors [2] = assay: Survival of rats with intracerebral tumors; details: intracerebral 9L-Neo tumors, ara-C 200 mg/kg; P<0.02
Protocol: 9L-Neo or 9L-dCK cells (2×10^4) were stereotaxically injected into right caudate nucleus of the brain.
In a second experiment, intracerebral tumors were established and rat survival was measured. Secondary to restricted intracranial volume, the survival of rats in this model represents a very reproducible parameter for determining the growth of transplanted tumors or tumor cell lines in vivo.
as §4

[3] = system: 9L cells transduced by Ad.CMVdCK; assay: Cytotoxic assay after adenoviral transduction; format: cell-based; details: Rattus norvegicus, 24 h
Protocol: (§1) FIGS. 6A and 6B show in vitro sensitivity to ara-C following transduction with dCK-expressing or control virus. 9L cells (2×10^3) were infected as follows: (FIG. 6A) Ad.CMVβgal at MOI 0 (●), 50 (▪), 500 ( ? ); and (FIG. 6B) Ad.CMVdCK at MOI 0 (◯), 50 (□) and 500 ( ? ). […] Cytotoxicity was determined by staining with methylene blue. […] The difference in cell killing was highly statistically significant for cells treated with Ad.CMVdCK at an MOI of 500 (P<0.00 1).
(§2) Cytotoxic assays were performed to determine whether 9L transduction by Ad.CMVdCK confers ara-C sensitivity. Forty-eight hours after transduction, 9L cells were exposed to various concentrations of ara-C for 24 hours. Forty-eight hours later, cells were assayed for cytotoxic effects.

[4] = system: 9L cells transduced by Ad.CMVβgal; assay: Cytotoxic assay after adenoviral transduction; format: cell-based; details: Rattus norvegicus; Ad.CMVβgal at different MOIs, 48 h after transduction, 24 hours ara-C
Protocol: as §1, §2

9L-WT cells = assay: Incorporation of ara-C into DNA; format: cell-based, rat; details: one million cells
Protocol: (§3) Three and 6 h later, labeled cells were harvested, and digested by the addition of 2.5 mg proteinase-K (Boehringer-Mannheim, Indianapolis, Ind.) in 2 ml of 10 mM Tris (pH 7.4), 1 mM EDTA, and 0.5% SDS. Subsequent purification was accomplished by phenol extraction. The nucleic acids were precipitated, centrifuged, treated with RNase A and then assayed for radioactivity [Major, P. D., et al., Proc. Natl. Acad. Sci. USA 78:3235-3239 (1981)].

9L-Neo cells [5] = assay: Incorporation of ara-C into DNA; format: cell-based, rat; details: one million cells
Protocol: as §3

9L-Neo tumors [6] = assay: Growth of intradermal tumors in syngeneic rat; format: in vivo, Fischer 344 rats
Protocol: Implantation of intradermal tumors. […] Tumor volume was calculated by multiplying the values of three perpendicular diameters. Statistical analysis was performed using an unpaired, two-tailed, Student's t-test.
Treatment of animals. […] Oncol.

## Nc1ccn([C@@H]2O[C@H](CO)[C@@H](O)[C@@H]2O)c(=O)n1 [ara-C, 1-β-D-arabinofuranosyl-cytosine]
9L-Neo cells [1]
  viability at 0.2 µM: 38%
Intracerebral 9L glioma; 2×10^8 PFU Ad.CMVdCK intratumoral, versus viral vehicle or Ad.CMVβgal and ara-C, P<0.0005
  Survival of animals treated with Ad.CMVdCK and ara-C: survived much longer
Intracerebral 9L glioma; versus PBS-treated animals, P<0.02
  Survival of vehicle and Ad.CMVβgal injected animals treated with ara-C: longer than that seen in the PBS-treated animals
9L-Neo tumors [2]
  Prolongation of median survival compared with PBS-treated animals: 8 days
[3]; Ad.CMVdCK MOI 0, 24 hours ara-C
  IC50: 300 nM
[3]; Ad.CMVdCK MOI 50, 24 hours ara-C
  IC50: 190 nM
[3]; Ad.CMVdCK MOI 500, 24 hours ara-C, P<0.001
  IC50: 80 nM
[4]
  IC50: ~300 nM
9L-WT cells; 3 hours, 10^−7 M [3H]ara-C
  Incorporation of ara-C into DNA: 0.359 ± 0.061 pmol
9L-WT cells; 3 hours, 10^−8 M [3H]ara-C
  Incorporation of ara-C into DNA: 0.054 ± 0.001 pmol
9L-WT cells; 6 hours, 10^−7 M [3H]ara-C
  Incorporation of ara-C into DNA: 1.905 ± 0.652 pmol
9L-WT cells; 6 hours, 10^−8 M [3H]ara-C
  Incorporation of ara-C into DNA: 0.305 ± 0.094 pmol
9L-Neo cells [5]; 3 hours, 10^−7 M [3H]ara-C
  Incorporation of ara-C into DNA: 0.502 ± 0.198 pmol
9L-Neo cells [5]; 3 hours, 10^−8 M [3H]ara-C
  Incorporation of ara-C into DNA: 0.067 ± 0.007 pmol
9L-Neo cells [5]; 6 hours, 10^−7 M [3H]ara-C
  Incorporation of ara-C into DNA: 1.926 ± 0.259 pmol
9L-Neo cells [5]; 6 hours, 10^−8 M [3H]ara-C
  Incorporation of ara-C into DNA: 0.403 ± 0.101 pmol
9L-Neo tumors [6]; intradermal 9L-Neo tumors, ara-C 200 mg/kg s.c. every 8 h for 2 days, two courses
  Tumor size: 9556+2272 mm^3
9L-Neo tumors [6]; intradermal, ara-C 200 mg/kg
  Growth of 9L-Neo tumors, ara-C versus PBS: no significant difference in the growth
